Source: ChEMBL document CHEMBL4392848, “Proline-based hydroxamates targeting the zinc-dependent deacetylase LpxC: Synthesis, antibacterial properties, and docking studies” (Bioorg Med Chem, 2019)
Values after ≈ are worked out from the molar mass of the structure shown.

Columns and labels:
Escherichia coli [1] = experiment: Antibacterial activity against Escherichia coli BL21(DE3) measured after 20 hrs by microdilution method; format: functional
Klebsiella oxytoca = experiment: Antibacterial activity against Klebsiella oxytoca assessed as diameter of inhibition zone measured after 24 hrs by agar disc diffusion method; format: functional
Escherichia coli [2] = experiment: Antibacterial activity against Escherichia coli BL21(DE3) assessed as diameter of inhibition zone measured after overnight incubation by agar disc diffusion method; format: functional
Klebsiella pneumoniae = experiment: Antibacterial activity against Klebsiella pneumoniae assessed as diameter of inhibition zone measured after 24 hrs by agar disc diffusion method; format: functional
Proteus vulgaris = experiment: Antibacterial activity against Proteus vulgaris assessed as diameter of inhibition zone measured after 24 hrs by agar disc diffusion method; format: functional
Escherichia coli [3] = experiment: Antibacterial activity against Escherichia coli D22 measured after 20 hrs by microdilution method; format: functional; conditions: D22, 20 h
Citrobacter freundii = experiment: Antibacterial activity against Citrobacter freundii assessed as diameter of inhibition zone measured after 24 hrs by agar disc diffusion method; format: functional
Escherichia coli [4] = experiment: Antibacterial activity against Escherichia coli D22 assessed as diameter of inhibition zone measured after overnight incubation by agar disc diffusion method; format: functional
Pseudomonas aeruginosa = experiment: Antibacterial activity against Pseudomonas aeruginosa assessed as diameter of inhibition zone measured after 24 hrs by agar disc diffusion method; format: functional
Klebsiella aerogenes = experiment: Antibacterial activity against Enterobacter aerogenes assessed as diameter of inhibition zone measured after 24 hrs by agar disc diffusion method; format: functional
Enterobacter cloacae = experiment: Antibacterial activity against Enterobacter cloacae assessed as diameter of inhibition zone measured after 24 hrs by agar disc diffusion method; format: functional
Proteus mirabilis = experiment: Antibacterial activity against Proteus mirabilis assessed as diameter of inhibition zone measured after 24 hrs by agar disc diffusion method; format: functional
[5] = Inhibition of Escherichia coli LpxC C63A mutant using UDP-3-O-[(R)-3-hydroxymyristoyl]-N-acetylglucosamine as substrate measured after 30 mins by fluorescence based microplate assay

| SMILES | MIC (Escherichia coli [1]) [µM] | MIC (Escherichia coli [3]) [µM] | diameter of the inhibition zone (DIZ) (Klebsiella oxytoca) [mm] | diameter of the inhibition zone (DIZ) (Escherichia coli [2]) [mm] | diameter of the inhibition zone (DIZ) (Klebsiella pneumoniae) [mm] | diameter of the inhibition zone (DIZ) (Proteus vulgaris) [mm] | diameter of the inhibition zone (DIZ) (Citrobacter freundii) [mm] | diameter of the inhibition zone (DIZ) (Escherichia coli [4]) [mm] | diameter of the inhibition zone (DIZ) (Pseudomonas aeruginosa) [mm] | diameter of the inhibition zone (DIZ) (Klebsiella aerogenes) [mm] | diameter of the inhibition zone (DIZ) (Enterobacter cloacae) [mm] | diameter of the inhibition zone (DIZ) (Proteus mirabilis) [mm] | IC50 [5] [µM] | Ki [5] [µM] |
| --- | --- | --- | --- | --- | --- | --- | --- | --- | --- | --- | --- | --- | --- | --- |
| Nc1ccc(C#Cc2ccc(C(=O)N3C[C@@H](O)C[C@H]3C(=O)NO)cc2)cc1 | > 256 | 128 (≈ 46.8 µg/mL) | 8 | <6 | <6 | <6 | <6 | 13 | <6 | <6 | <6 | 8 | – | – |
| COc1ccc(C#Cc2ccc(C(=O)N3C[C@@H](O)C[C@H]3C(=O)NO)cc2)cc1 | > 256 | 128 (≈ 48.7 µg/mL) | 7 | <6 | <6 | 9 | 8 | <6 | <6 | <6 | 8 | <6 | – | – |
| O=C(NO)[C@H]1O[C@@H](c2ccc(C#Cc3ccc(CN4CCOCC4)cc3)cc2)[C@@H](O)[C@H]1O | > 256 | 16 (≈ 7.02 µg/mL) | – | <6 | – | – | – | 13.2 | – | – | – | – | > 200 | > 27.6 |
| CC1(C)O[C@@H]2[C@H](O1)[C@H](c1ccc(C#Cc3ccc(CN4CCOCC4)cc3)cc1)O[C@@H]2C(=O)NO | > 256 | 128 (≈ 61.3 µg/mL) | – | <6 | – | – | – | 14.7 | – | – | – | – | > 200 | > 27.6 |
| O=C(NO)[C@@H]1O[C@@H](c2ccc(C#Cc3ccc(CN4CCOCC4)cc3)cc2)[C@@H](O)[C@H]1O | > 256 | 8 (≈ 3.51 µg/mL) | – | <6 | – | – | – | 22.1 | – | – | – | – | 10 | 1.4 |
| O=C(NO)[C@@H]1C[C@H](O)[C@H](c2ccc(C#Cc3ccc(CN4CCOCC4)cc3)cc2)O1 | > 256 | 16 (≈ 6.76 µg/mL) | – | <6 | – | – | – | 15.3 | – | – | – | – | 87 | 12 |

More lines, main results first:

| MIC (Escherichia coli [1]) [µM] | MIC (Escherichia coli [3]) [µM] | SMILES | diameter of the inhibition zone (DIZ) (Klebsiella oxytoca) [mm] | diameter of the inhibition zone (DIZ) (Escherichia coli [2]) [mm] | diameter of the inhibition zone (DIZ) (Klebsiella pneumoniae) [mm] | diameter of the inhibition zone (DIZ) (Proteus vulgaris) [mm] | diameter of the inhibition zone (DIZ) (Citrobacter freundii) [mm] | diameter of the inhibition zone (DIZ) (Escherichia coli [4]) [mm] | diameter of the inhibition zone (DIZ) (Pseudomonas aeruginosa) [mm] | diameter of the inhibition zone (DIZ) (Klebsiella aerogenes) [mm] | diameter of the inhibition zone (DIZ) (Enterobacter cloacae) [mm] | diameter of the inhibition zone (DIZ) (Proteus mirabilis) [mm] | IC50 [5] [µM] | Ki [5] [µM] |
| --- | --- | --- | --- | --- | --- | --- | --- | --- | --- | --- | --- | --- | --- | --- |
| > 256 | 128 (≈ 45.1 µg/mL) | O=C(NO)[C@@H]1C[C@H](F)CN1C(=O)c1ccc(C#Cc2ccccc2)cc1 | – | <6 | – | – | – | 13.3 | – | – | – | – | 65.9 | 9.1 |
| > 256 | 128 (≈ 44.7 µg/mL) | N[C@H]1C[C@@H](C(=O)NO)N(C(=O)c2ccc(C#Cc3ccccc3)cc2)C1 | 7 | 7.5 | 7 | <6 | 7 | 12.3 | 7 | 7 | 7 | 8 | – | – |
| > 256 | 128 (≈ 44.8 µg/mL) | O=C(NO)[C@@H]1C[C@@H](O)CN1C(=O)c1ccc(C#Cc2ccccc2)cc1 | – | <6 | – | – | – | 14 | – | – | – | – | 103 | 14.2 |
| > 256 | 128 (≈ 43.3 µg/mL) | O=C(NO)[C@@H]1C[C@H](F)CN1Cc1ccc(C#Cc2ccccc2)cc1 | – | <6 | – | – | – | 10.7 | – | – | – | – | > 200 | > 27.6 |
| > 256 | 256 (≈ 94.3 µg/mL) | O=C(NO)[C@@H]1C[C@@H](O)CN1C(=O)c1ccc(C#Cc2ccc(F)cc2)cc1 | – | <6 | – | – | – | 10.7 | – | – | – | – | > 200 | > 27.6 |
